# Like-named read-outs stand apart in the source and are kept apart here.
# How the values were obtained:
# Dermacentor variabilis [1] = assay: Topical treatment in-vivo test with American dog tick nymph on rats; details: topical spot-on, 25 mg/kg
# Protocol: (§1) Topical Treatment In-Vivo Test with American Dog Tick Nymph and Cat Flea on Rats
# (§2) Type of study and overall study design: The method is a randomized non-blinded efficacy study in accordance with European animal welfare requirements. Rats (Rattus norvegicus) were randomized based on pre-treatment flea counts. The efficacy of treatment was determined by comparison of the flea and tick counts of different treatment groups versus the placebo-treated control group. The experimental unit was the individual study animal.
# (§3) Method and route of administration: The compound was applied in a suitable solvent and carrier (more specifically, added to the following mixture: 33.3% by weight propylene carbonate, […] N-methylpyrrolidone, 0.1% by weight BHA, 0.05% by weight BHT) considering the individual body weight as topical spot-on between the shoulder blades directly onto the skin.
# (§4) Experimental infestation: On the day of treatment and weekly thereafter, 30 ticks (D. variabilis nymphs) were released onto the back of each rat, and 30 fleas (C. felis) were released onto the back of each rat 24 h later.
# (§5) Tick and Flea counting: Rats were thoroughly examined and ticks and fleas were manually removed 48 h (+4 h) after tick infestation and 24 h after flea infestation. Live fleas and live attached engorged ticks were counted. In non-evident cases, engorgement status was evaluated by squeezing the tick on a filter paper to find traces of blood as sign for engorgement.
# Ctenocephalides felis [2] = assay: Topical treatment in-vivo test with cat flea on rats; details: topical spot-on, 25 mg/kg
# Protocol: as §1, §2, §3, §4, §5
# Dermacentor variabilis [3] = assay: Systemic treatment in-vivo test with American dog tick nymph on rats; details: Dermacentor variabilis, ip, intraperitoneal injection
# Protocol: (§6) Systemic Treatment In-Vivo Test with American Dog Tick Nymph and Cat Flea on Rats
# (§7) Type of study and overall study design: The method is a randomized non-blinded efficacy study in accordance with European animal welfare requirements. Rats (Rattus norvegicus) were randomized based on pre-treatment flea counts. The efficacy of treatment was determined by comparison of the flea and tick counts of different treatment groups versus the placebo-treated control group. The experimental unit was the individual study animal. Method and route of administration: The compound was applied in a suitable solvent and carrier (more specifically, added to glycerol formal; in case of poorly soluble compounds, a solvent mixture with up to 25% by volume of N-methyl pyrrolidone may be used.) considering the individual body weight as an intraperitoneal injection.
# as §4
# as §5, with “(±4” for “(+4”
# Ctenocephalides felis [4] = assay: Systemic treatment in-vivo test with cat flea on rats; details: Ctenocephalides felis, ip, intraperitoneal injection
# Protocol: as §6, §7, §4
# as §5, with “(±4” for “(+4”
# [5] = SD 2, read-out: Geometric mean percent reduction in live tick (Dermacentor variabilis) counts compared to untreated control rats
# [6] = SD 9, read-out: Geometric mean percent reduction in live tick (Dermacentor variabilis) counts compared to untreated control rats
# [7] = SD 16, read-out: Geometric mean percent reduction in live tick (Dermacentor variabilis) counts compared to untreated control rats
# [8] = SD 2, read-out: Geometric mean percent reduction in live flea (Ctenocephalides felis) counts compared to untreated control rats
# [9] = SD 9, read-out: Geometric mean percent reduction in live flea (Ctenocephalides felis) counts compared to untreated control rats
structure (smiles),measurement,setting,value
"CN(C(=O)c1ccccc1)c1cccc(C(=O)Nc2c(Br)cc(C(F)(C(F)(F)F)C(F)(F)F)cc2C(F)(F)F)c1F [Compound (B), reference compound]",Geometric mean percent reduction in live tick (Dermacentor variabilis) counts compared to untreated control rats,Dermacentor variabilis [1]; SD 2,58%
same,Geometric mean percent reduction in live tick (Dermacentor variabilis) counts compared to untreated control rats,Dermacentor variabilis [1]; SD 9,85%
same,Geometric mean percent reduction in live tick (Dermacentor variabilis) counts compared to untreated control rats,Dermacentor variabilis [1]; SD 16,65%
same,Geometric mean percent reduction in live tick (Dermacentor variabilis) counts compared to untreated control rats,Dermacentor variabilis [1]; SD 23,4%
same,Geometric mean percent reduction in live flea (Ctenocephalides felis) counts compared to untreated control rats,Ctenocephalides felis [2]; SD 2,84%
same,Geometric mean percent reduction in live flea (Ctenocephalides felis) counts compared to untreated control rats,Ctenocephalides felis [2]; SD 9,72%
same,Geometric mean percent reduction in live flea (Ctenocephalides felis) counts compared to untreated control rats,Ctenocephalides felis [2]; SD 16,45%
same,inhibition in vivo at 2 mg/kg,Dermacentor variabilis [3]; [5],75%
same,inhibition in vivo at 2 mg/kg,Dermacentor variabilis [3]; [6],63%
same,inhibition in vivo at 2 mg/kg,Dermacentor variabilis [3]; [7],0%
same,inhibition in vivo at 10 mg/kg,Dermacentor variabilis [3]; [5],100%
same,inhibition in vivo at 10 mg/kg,Dermacentor variabilis [3]; [6],11%
same,inhibition in vivo at 10 mg/kg,Dermacentor variabilis [3]; [7],2%
same,inhibition in vivo at 2 mg/kg,Ctenocephalides felis [4]; [8],97%
same,inhibition in vivo at 2 mg/kg,Ctenocephalides felis [4]; [9],32%
same,inhibition in vivo at 10 mg/kg,Ctenocephalides felis [4]; [8],100%
same,inhibition in vivo at 10 mg/kg,Ctenocephalides felis [4]; [9],53%
same,inhibition in vivo at 10 mg/kg,"Ctenocephalides felis [4]; SD 16, read-out: Geometric mean percent reduction in live flea (Ctenocephalides felis) counts compared to untreated control rats",6%
